Data set [1] addresses T1, α2B (h) (Homo sapiens, UniProt P18089).
T1 sequence (P18089 1-450): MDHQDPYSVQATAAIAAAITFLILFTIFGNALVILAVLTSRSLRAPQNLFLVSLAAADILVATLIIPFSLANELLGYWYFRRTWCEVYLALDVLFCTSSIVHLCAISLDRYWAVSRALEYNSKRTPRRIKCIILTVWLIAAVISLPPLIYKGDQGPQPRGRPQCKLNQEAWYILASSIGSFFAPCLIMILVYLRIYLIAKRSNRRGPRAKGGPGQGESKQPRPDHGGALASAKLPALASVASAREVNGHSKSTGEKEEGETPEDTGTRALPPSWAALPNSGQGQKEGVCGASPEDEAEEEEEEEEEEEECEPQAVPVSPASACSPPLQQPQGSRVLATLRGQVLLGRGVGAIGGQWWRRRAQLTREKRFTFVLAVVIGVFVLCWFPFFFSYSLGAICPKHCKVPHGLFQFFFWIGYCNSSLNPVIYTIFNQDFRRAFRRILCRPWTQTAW
As to the kind of experiment: α2B (h) (antagonist effect) cellular functional assay. The class given is cell-based. On the procedure:
(§1) Representative compounds were tested to determine IC50 or EC50 in receptor functional assays. One or more of the procedures disclosed in the following references were used: Devedjian, J. C. et al., Eur. J. Pharmacol., 1994, 252, 43-49; Wang, J. B. et al., FEBS Lett., 1994, 338, 217-222; Simonin, F. et al., Mol. Pharmacol., 1994, 46, 1015-1021; Meng, F. et al., Proc. Natl. Acad. Sci. U.S.A., 1993, 90, 9954-9958; Avidor-Reiss, T. et al., FEBS Lett., 1995, 361, 70-74; Eason, M. G. et al., J. Biol. Chem., 1992, 267, 15795-15801; Law, P. Y. et al., Mol. Pharmacol., 1993, 43, 684-693. In each experiment and if applicable, the respective reference compound was tested concurrently with the test compounds. Compound binding was calculated as a % inhibition of the binding of a radioactively labeled ligand specific for each target. Cellular agonist effect was calculated as a % of control response to a known reference agonist for each target and cellular antagonist effect was calculated as a % inhibition of control reference agonist response for each target. Only the calculable IC50 and EC50 are reported below.

A further data set addresses κ (KOP) (Rattus norvegicus, UniProt P34975). Format: binding.
The target of data set [2] is T2, μ (MOP) (h) (Homo sapiens, UniProt P35372). Format: cell-based.
Data set [3] addresses T1, α2B (h). As to the kind of experiment: α2B (h) (antagonist radioligand) binding. The conditions noted are these: for nH: α2B (h) (antagonist radioligand). On the procedure:
as §1

Data set [4] deals with T3, CYP3A4 (Homo sapiens, UniProt P08684). The conditions noted are these: 0.1-25 μM, human liver microsomes, substrate midazolam. Background: Microsomes from liver hold many membrane-bound enzymes, among them those of drug oxidation.
Data set [5] addresses CYP1A2 (Homo sapiens, UniProt P05177). The conditions noted are these: 0.1-25 μM, human liver microsomes, phenacetin.
Data set [6] is described as follows: Bioavailability and stability evaluation. The conditions noted are these: summary.
Data set [7] has as its system L-dopa-induced dyskinesia. Description: L-dopa-induced dyskinesia, comparison with amantadine. Format: in vivo. The conditions noted are these: model not specified.
The target in another data set is hERG potassium channel (Homo sapiens, UniProt Q12809). Description: hERG channel inhibition, IonWorks automated patch clamp, CHO-hERG cells. The conditions noted are these: up to 25 micromolar. On the technique in general: hERG is a cardiac potassium channel; its block is linked to QT prolongation.
Data set [8] has as its system CYP2B6. The conditions noted are these: human hepatocytes, 72 hr, at 100 μM.
The target of data set [9] is T3, CYP3A4. The conditions noted are these: 0.1-25 μM, human liver microsomes, substrate testosterone.
Data set [10] is described as follows: Toxicity in animal models. The class given is in vivo. The conditions noted are these: many animal models, even at high concentrations.
Data set [11] in a line: Brain tissue binding, equilibrium dialysis, mouse. The conditions noted are these: 5 μM. (In general: In equilibrium dialysis free small molecules cross a membrane that holds back macromolecules.)
Data set [12] relates to CYP3A4. The conditions noted are these: human hepatocytes, 72 hr, any concentration tested.
A further data set addresses CYP2C8 (Homo sapiens, UniProt P10632). As to the kind of experiment: CYP2C8 inhibition, human liver microsomes (paclitaxel). The conditions noted are these: 0.1-25 μM.
Data set [13] addresses CYP2B6 (Homo sapiens, UniProt P20813). The conditions noted are these: 0.1-25 μM, human liver microsomes, bupropion.
Data set [14] can be described thus: Binding to plasma proteins. Format: in vitro ADME. The conditions noted are these: very small species differences.
Data set [15] deals with CYP1A2. The conditions noted are these: human hepatocytes, 72 hr, any concentration tested.
For data set [16], the system named is L-DOPA induced dyskinesias. Description: L-DOPA induced dyskinesias, Rodent in vivo model.
Data set [17] relates to L-DOPA induced dyskinesias. Description: L-DOPA induced dyskinesias, Primate in vivo model.
The nature of data set [18]: Caco-2 permeability (bi-directional). The conditions noted are these: human, Caco-2, pH 6.8.
In a further data set the test system is Caco-2 cells. Description: Caco-2 permeability (bi-directional). The conditions noted are these: 10 μM, pH gradient (pH 6.8/7.4).
For the next data set, the target named is CYP2C19 (Homo sapiens, UniProt P33261). As to the kind of experiment: CYP2C19 inhibition, human liver microsomes (mephenytoin). The conditions noted are these: up to 25 micromolar.
Another data set has as its target CYP2C9 (Homo sapiens, UniProt P11712). As to the kind of experiment: CYP2C9 inhibition, human liver microsomes (tolbutamide). The conditions noted are these: 0.1-25 μM.
The target in the next data set is T4, CYP2D6 (Homo sapiens, UniProt P10635).
T4 construct: from tissue
Description: Time dependent inhibition of CYP2D6 (dextromethorphan; IC50 shift). Format: in vitro ADME. How it is done:
Six test compound concentrations (0.1, 0.25, 1, 2.5, 10, 25 μM; final DMSO concentration 0.25%, final microsome concentration 0.5 mg/mL) were either pre-incubated for 30 min in the absence and presence of NADPH or undergo a 0 min pre-incubation. The probe substrate dextromethorphan (5 μM) and NADPH (1 mM) were then added (final DMSO concentration 0.3%) and the samples incubated for 5 min at 37° C. The selective time dependent CYP2D6 inhibitor, paroxetine, was screened alongside the test compounds as a positive control. The reactions were terminated by the addition of an aliquot of the incubation into methanol. The samples were centrifuged at 2500 rpm for 30 min at 4° C., and aliquots of the supernatant are diluted with formic acid in deionised water (final concentration 0.1%) containing internal standard prior to analysis of dextrorphan by LC-MS/MS.

A further data set relates to MDR1-MDCK cells. Description: MDR1-MDCK permeability and P-gp substrate identification (bi-directional). The class given is in vitro ADME, canine. The conditions noted are these: 10 μM, MDR1-MDCK, pH 7.4. How it is done: (§2) Cells were then incubated with HBSS at the desired pH in both apical and basolateral compartments for 40 min to stabilize physiological parameters.
(§3) The fluorescent integrity marker lucifer yellow was also included in the dosing solution. […] Analytical standards were prepared from test compound DMSO dilutions and transferred to buffer, maintaining a 1% v/v DMSO concentration.
(§4) For assessment of A-B permeability, HBSS was removed from the apical compartment and replaced with test compound dosing solution. […] For assessment of B-A permeability, HBSS was removed from the companion plate and replaced with test compound dosing solution. […] Test compound permeability was assessed in duplicate. Compounds of known permeability characteristics were run as controls on each assay plate. […] Cyprotex generic analytical conditions were used. The starting concentration (C0) was determined from the dosing solution and the experimental recovery calculated from C0 and both apical and basolateral compartment concentrations.
(§5) The integrity of the monolayer throughout the experiment was checked by monitoring lucifer yellow permeation using fluorimetric analysis.

The test system of the next data set is P-glycoprotein (MDR1). The description is as above. The class given is in vitro ADME, canine. The conditions noted are these: dog, MDCK-MDR1, pH 7.4; minus inhibitor (no cyclosporin A). How it is done: as §2, §3, §4, §5
A further data set concerns the target δ2 (DOP) (h) (Homo sapiens, UniProt P41143). Format: binding.
Data set [19] concerns the target T2, μ (MOP) (h). Format: binding.

Read-outs that look alike come from different tables or passages of the source.

T2 sequence (P35372 whole entry): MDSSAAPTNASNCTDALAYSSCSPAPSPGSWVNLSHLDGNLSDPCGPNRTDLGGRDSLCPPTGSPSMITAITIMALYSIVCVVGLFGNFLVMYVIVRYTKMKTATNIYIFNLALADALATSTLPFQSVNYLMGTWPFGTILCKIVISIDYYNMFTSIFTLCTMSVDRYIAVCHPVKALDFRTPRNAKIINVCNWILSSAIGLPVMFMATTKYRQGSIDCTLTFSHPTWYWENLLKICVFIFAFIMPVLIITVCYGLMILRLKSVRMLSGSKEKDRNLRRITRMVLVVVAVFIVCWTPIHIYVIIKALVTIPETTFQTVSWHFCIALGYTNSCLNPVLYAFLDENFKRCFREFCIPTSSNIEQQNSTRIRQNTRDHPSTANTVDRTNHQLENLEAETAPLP
T4 sequence (P10635 whole entry): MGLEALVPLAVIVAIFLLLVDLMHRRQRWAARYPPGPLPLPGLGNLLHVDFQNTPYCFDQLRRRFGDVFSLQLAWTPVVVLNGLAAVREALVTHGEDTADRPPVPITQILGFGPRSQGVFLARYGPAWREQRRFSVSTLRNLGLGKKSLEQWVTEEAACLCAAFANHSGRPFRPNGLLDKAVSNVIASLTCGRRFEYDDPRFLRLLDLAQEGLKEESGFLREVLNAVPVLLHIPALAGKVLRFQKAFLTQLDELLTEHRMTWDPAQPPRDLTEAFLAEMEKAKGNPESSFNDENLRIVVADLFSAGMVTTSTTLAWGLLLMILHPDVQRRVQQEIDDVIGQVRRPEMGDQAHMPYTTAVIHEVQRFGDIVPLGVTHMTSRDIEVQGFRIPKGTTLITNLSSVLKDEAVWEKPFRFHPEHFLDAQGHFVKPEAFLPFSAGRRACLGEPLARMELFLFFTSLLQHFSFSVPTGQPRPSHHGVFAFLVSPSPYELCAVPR
κ (KOP), sequence (P34975 whole entry): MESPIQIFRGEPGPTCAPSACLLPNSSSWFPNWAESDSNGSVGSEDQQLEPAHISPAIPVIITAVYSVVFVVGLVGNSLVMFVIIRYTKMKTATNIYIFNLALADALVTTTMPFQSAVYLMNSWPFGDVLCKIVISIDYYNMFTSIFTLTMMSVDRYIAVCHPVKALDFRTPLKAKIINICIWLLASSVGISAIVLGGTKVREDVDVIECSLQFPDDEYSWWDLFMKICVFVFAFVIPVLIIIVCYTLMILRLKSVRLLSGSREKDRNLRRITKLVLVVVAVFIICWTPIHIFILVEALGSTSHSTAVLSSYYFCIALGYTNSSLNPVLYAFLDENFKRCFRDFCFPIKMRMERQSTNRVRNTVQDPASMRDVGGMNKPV
δ2 (DOP) (h), sequence (P41143 whole entry): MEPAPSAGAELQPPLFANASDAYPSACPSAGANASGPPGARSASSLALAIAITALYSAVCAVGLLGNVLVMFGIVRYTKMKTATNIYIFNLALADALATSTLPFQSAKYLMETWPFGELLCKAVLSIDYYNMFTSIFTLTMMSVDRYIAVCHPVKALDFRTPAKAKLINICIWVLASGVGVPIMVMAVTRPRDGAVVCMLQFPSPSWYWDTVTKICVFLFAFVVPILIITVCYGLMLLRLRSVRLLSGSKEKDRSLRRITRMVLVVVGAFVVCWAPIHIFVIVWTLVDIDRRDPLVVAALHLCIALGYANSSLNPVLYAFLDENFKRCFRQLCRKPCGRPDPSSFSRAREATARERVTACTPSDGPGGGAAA
T3 sequence (P08684 whole entry): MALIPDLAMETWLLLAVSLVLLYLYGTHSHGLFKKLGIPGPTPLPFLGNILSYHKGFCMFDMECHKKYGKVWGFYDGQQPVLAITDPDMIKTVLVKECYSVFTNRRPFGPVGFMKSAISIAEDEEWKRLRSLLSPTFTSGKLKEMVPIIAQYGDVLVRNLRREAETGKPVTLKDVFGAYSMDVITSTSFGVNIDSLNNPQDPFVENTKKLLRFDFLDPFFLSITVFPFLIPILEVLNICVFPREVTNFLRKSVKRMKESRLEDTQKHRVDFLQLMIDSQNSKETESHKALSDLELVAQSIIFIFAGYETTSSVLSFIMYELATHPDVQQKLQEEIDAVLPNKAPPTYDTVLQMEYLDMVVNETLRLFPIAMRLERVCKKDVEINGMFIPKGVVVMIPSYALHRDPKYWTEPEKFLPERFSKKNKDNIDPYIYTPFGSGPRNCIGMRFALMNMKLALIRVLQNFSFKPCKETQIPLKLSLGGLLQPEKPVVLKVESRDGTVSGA
CYP2B6 (Homo sapiens, UniProt P20813), sequence (P20813 whole entry): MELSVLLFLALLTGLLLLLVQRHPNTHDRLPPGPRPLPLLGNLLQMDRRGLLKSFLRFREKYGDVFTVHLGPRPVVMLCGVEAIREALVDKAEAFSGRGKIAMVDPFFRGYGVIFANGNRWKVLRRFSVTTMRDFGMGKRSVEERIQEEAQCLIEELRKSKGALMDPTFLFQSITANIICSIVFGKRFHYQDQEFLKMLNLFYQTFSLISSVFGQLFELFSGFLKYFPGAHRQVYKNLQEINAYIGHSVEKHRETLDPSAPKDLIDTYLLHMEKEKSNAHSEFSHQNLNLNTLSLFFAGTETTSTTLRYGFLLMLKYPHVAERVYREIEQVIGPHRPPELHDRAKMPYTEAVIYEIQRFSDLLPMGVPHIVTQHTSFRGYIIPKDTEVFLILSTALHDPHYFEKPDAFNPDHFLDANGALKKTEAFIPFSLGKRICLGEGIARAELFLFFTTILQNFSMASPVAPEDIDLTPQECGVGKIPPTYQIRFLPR
CYP2C9, sequence (P11712 whole entry): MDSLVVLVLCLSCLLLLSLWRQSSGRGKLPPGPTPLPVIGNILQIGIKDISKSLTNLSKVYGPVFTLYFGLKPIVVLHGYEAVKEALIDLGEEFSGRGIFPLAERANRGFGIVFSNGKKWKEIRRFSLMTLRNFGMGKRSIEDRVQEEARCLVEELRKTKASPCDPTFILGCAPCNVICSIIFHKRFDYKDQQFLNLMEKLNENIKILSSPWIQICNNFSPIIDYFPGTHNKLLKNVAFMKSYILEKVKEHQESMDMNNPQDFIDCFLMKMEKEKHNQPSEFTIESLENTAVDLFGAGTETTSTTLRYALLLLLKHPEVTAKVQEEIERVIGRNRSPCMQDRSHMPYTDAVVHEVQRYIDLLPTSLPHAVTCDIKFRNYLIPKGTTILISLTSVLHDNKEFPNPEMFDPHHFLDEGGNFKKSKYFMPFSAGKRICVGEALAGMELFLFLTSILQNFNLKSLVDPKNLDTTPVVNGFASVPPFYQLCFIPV
CYP1A2 (Homo sapiens, UniProt P05177), sequence (P05177 whole entry): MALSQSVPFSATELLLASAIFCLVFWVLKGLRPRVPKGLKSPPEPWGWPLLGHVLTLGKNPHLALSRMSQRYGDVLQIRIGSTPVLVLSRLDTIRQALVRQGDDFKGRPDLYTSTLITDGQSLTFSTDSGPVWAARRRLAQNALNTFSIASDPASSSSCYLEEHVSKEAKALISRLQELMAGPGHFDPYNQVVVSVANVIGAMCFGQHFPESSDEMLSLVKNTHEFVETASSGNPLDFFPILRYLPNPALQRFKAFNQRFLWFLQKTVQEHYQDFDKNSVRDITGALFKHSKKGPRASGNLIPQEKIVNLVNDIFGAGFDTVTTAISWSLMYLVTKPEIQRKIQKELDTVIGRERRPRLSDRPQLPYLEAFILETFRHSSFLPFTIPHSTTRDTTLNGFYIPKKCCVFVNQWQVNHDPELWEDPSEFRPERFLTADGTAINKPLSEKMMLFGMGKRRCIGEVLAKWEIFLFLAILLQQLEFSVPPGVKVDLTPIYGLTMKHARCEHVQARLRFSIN
CYP2C8, sequence (P10632 whole entry): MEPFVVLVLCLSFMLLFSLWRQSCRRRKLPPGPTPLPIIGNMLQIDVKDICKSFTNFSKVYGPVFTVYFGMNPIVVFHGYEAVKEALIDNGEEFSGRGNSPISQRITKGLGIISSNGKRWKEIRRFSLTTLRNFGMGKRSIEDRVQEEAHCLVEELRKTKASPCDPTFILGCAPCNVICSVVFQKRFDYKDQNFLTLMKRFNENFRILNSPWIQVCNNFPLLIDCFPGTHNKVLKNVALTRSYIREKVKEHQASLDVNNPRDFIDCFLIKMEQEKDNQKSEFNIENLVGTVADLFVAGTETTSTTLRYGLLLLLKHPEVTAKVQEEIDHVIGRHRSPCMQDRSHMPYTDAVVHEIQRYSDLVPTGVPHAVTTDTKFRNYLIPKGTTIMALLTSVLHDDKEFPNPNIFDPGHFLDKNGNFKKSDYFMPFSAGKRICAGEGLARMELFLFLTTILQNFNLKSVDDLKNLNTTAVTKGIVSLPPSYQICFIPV
CYP2C19, sequence (P33261 whole entry): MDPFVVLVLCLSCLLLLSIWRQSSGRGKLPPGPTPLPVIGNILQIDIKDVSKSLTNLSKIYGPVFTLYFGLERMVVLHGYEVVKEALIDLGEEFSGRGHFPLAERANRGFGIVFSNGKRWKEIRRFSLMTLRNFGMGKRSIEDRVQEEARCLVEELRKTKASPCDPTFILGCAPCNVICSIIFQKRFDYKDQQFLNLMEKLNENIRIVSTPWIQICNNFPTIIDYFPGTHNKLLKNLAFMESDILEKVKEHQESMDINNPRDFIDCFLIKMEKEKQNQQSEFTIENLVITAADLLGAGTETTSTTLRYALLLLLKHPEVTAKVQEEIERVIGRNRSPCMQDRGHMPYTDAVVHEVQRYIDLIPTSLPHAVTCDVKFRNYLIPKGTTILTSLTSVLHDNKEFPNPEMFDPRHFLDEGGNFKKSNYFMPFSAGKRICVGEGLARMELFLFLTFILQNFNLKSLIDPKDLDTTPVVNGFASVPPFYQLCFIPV

As a reminder, the IC50 is the point on the concentration scale where inhibition reaches its midpoint. As a reminder, the Kb is the equilibrium dissociation constant of an antagonist, usually derived from a functional assay. Low values mean higher antagonist affinity, high ones lower antagonist affinity. One may read the Ki as the equilibrium dissociation constant of an inhibitor or competing ligand from its target. Read a low Ki as tighter binding. For the compound `O=C(CCCCCCCBr)NC1CCN(CCc2ccccc2)CC1` [8-bromo-N-(1-phenethylpiperidin-4-yl)octanamide], the IC50 against α2B (h) [1] came out at 360 µM; at α2B (h) [3], 5.7 µM. This compound returned a Kb at α2B (h) [1] of 46 µM. In addition, the nH on κ (KOP) was found to be 0.5; on μ (MOP) (h) [2], 0.4; on α2B (h) [3] it was 0.8. The affinity on α2B (h) [3] corresponds to a Ki of 3.8 µM.

As a reminder, the efflux ratio is a quotient of directional permeabilities that is used to spot active efflux. One may read the inhibition as the relative decrease from the control value, in per cent. With `CCC(=O)NC1CCN(CCc2ccccc2)CC1` [HCV-3, N-(1-phenethylpiperidin-4-yl)propionamide], the CYP3A4 inhibition result at CYP3A4 [4] and at CYP3A4 [9] was “No significant inhibition” in each case. For the same compound, the CYP1A2 inhibition entry on CYP1A2 [5] is listed as “No significant inhibition”. Besides, the bioavailability entry in data set [6] is listed as “highly bioavailable”. In addition, in [7], the “effectiveness compared with amantadine” value was “significantly more effective than amantadine”. In addition, the “hERG inhibition activity (conclusion)” value on hERG potassium channel is on record as “weak or no significant hERG inhibition activity”. Further, the “CYP2B6 mRNA expression” value with CYP2B6 [8] was “slight, yet statistically significant decrease”. Also, the toxicity entry in data set [10] is “virtually no toxicity”. Besides, the binding result in data set [11] is “no binding at all could be detected”. Besides, the “CYP3A4 mRNA expression” value with CYP3A4 [12] is listed as “didn't cause a statistically significant change”. For the same compound, on CYP2C8, the CYP2C8 inhibition entry was “No significant inhibition”. Further, at CYP2B6 [13], the CYP2B6 inhibition result is “No significant inhibition”. In addition, in data set [14], the “binding to plasma proteins” value is “weak, or no noticeable binding”. The “CYP1A2 mRNA expression” value in the data set with CYP1A2 [15] is “didn't cause a statistically significant change”. Moreover, the “inhibition of L-DOPA induced dyskinesias” value in [16] and in [17] was “significant inhibition” each time. Further, in [18], the efflux ratio at 120 min, 10 µM was 2.7. Moreover, in the data set on Caco-2 cells, the “permeability in the Caco-2 assay” value is on record as “highly permeable in both directions”. Further, the “CYP2C19 IC50” value at CYP2C19 is given as “too weak to generate an IC50 value”. Also, at CYP2C9, the CYP2C9 inhibition result is reported as “No significant inhibition”. For the same compound, the CYP2D6 inhibition entry on CYP2D6 (25 μM, 30 minute plus NADPH incubation) was “approximately 40%”. Also, at CYP2D6 (IC50 shift, 30 min pre-incubation with/without NADPH), the “time-dependent CYP2D6 inhibition (conclusion)” value is recorded as “no evidence of time-dependent CYP2D6 inhibition”. The 50% inhibitory concentration (IC50) at 5 min at CYP2D6 (human, microsomes, probe dextromethorphan (5 µM), 0 minute incubation) was greater than 25 µM. For the same compound, the inhibition at 5 min, 25 µM at CYP2D6 (human, microsomes, probe dextromethorphan (5 µM), 25 μM, 0 minute incubation) was roughly 40%. In the data set on MDR1-MDCK cells, the “permeability in the MDCK assay” value was “highly permeable”. Also, the efflux ratio at 60 min, 10 µM in the data set on P-glycoprotein (MDR1) was found to be 1.48.

`CCC(=O)NC1CCN(CCc2cccs2)CC1` [N-(1-(2-(thiophen-2-yl)ethyl)piperidin-4-yl)propionamide]: the IC50 against α2B (h) [1] stood at 440 µM; on α2B (h) [3] it was 11 µM. The compound also came in with a Kb on α2B (h) [1] of 57 µM. For the same compound, the nH on κ (KOP) amounted to 0.6; at μ (MOP) (h) [2], 0.6; at δ2 (DOP) (h), 0.9; on α2B (h) [3], 1.2. Moreover, affinity on α2B (h) [3] was put at a Ki of 7.6 µM.

On to `O=C(NC1CCN(CCc2ccccc2)CC1)c1ccccc1` [N-(1-phenethylpiperidin-4-yl)benzamide], for which the IC50 on α2B (h) [1] came out at 350 µM; on α2B (h) [3], 4 µM. In addition, the Kb at α2B (h) [1] was determined as 46 µM. For the same compound, the nH on κ (KOP) is listed as 0.6; on δ2 (DOP) (h), 0.7; on α2B (h) [3] it was 1.3; at μ (MOP) (h) [19], 0.9. Further, at α2B (h) [3], the inhibitory constant (Ki) amounted to 0.27 µM.

With `O=C(NC1CCN(CCc2ccccc2)CC1)c1ccco1` [N-(1-phenethylpiperidin-4-yl)furan-2-carboxamide], the half-maximal inhibitory concentration (IC50) worked out at 380 µM on α2B (h) [1] and 4.6 µM on α2B (h) [3]. On α2B (h) [1], this compound yielded a Kb of 50 µM. For the same compound, the nH on κ (KOP) was determined as 1.1; on δ2 (DOP) (h) it was 1; at α2B (h) [3] it was 0.7; on μ (MOP) (h) [19], 0.8. Besides, the Ki on α2B (h) [3] turned out to be 3 µM.

Consider `O=C(NC1CCN(CCc2ccccc2)CC1)c1ccoc1` [N-(1-phenethylpiperidin-4-yl)furan-3-carboxamide], for which the IC50 on α2B (h) [1] is 230 µM; at α2B (h) [3] it was 3 µM. The antagonist dissociation constant (Kb) at α2B (h) [1] stood at 50 µM. The nH on κ (KOP) was 1.1; at δ2 (DOP) (h), 1; on α2B (h) [3], 0.7; on μ (MOP) (h) [19], 0.8. This compound also returned a Ki on α2B (h) [3] of 3 µM.

Values taken from patent US20180235949A1 (priority 2015, published 2018).
